Laboratory results as given in PMC9320067, “Novel Potent and Selective Agonists of the GPR55 Receptor Based on the 3-Benzylquinolin-2(1H)-One Scaffold” (Pharmaceuticals, 2022).
Where two headings read alike, the source gives them in different places.

Columns and labels:
human CB1R = molecular target: T1, human CB1R (Homo sapiens, UniProt P21554); assay: [3H]CP55,940 radioligand displacement assay on hCB1R CHO cell membranes; assay type: binding
T1 construct: HitHunter) 95-0071C2; host or cells: CHO-K1
Experimental: (§1) Assays were performed as described previously and summarized here. […] Binding was initiated by the addition of transfected hGPR55, hCB1R or hCB2R CHO cell membranes (25 μg protein per well). All assays were performed at 37°C for 120 min prior to quenching with ice-cold Tris binding buffer followed by vacuum filtration using a 24-well sampling manifold (Brandel Cell Harvester; Brandel, Inc., Gaithersburg, MD, USA) and Brandel GF/B filters. Each reaction well was washed six times with 1.2 mL aliquots of Tris-binding buffer. The filters were air-dried overnight and then placed in 5 mL of scintillation fluid (Ultima Gold XR, Perkin Elmer, Inc., Waltham, MA, USA). Liquid scintillation spectrometry was used for quantifying radioactivity.
(§2) Data for p-ERK in-cell westerns are shown as fold over vehicle response (i.e., 1). Estimates of Ki, EC50 and Emax were determined using non-linear regression (3 parameters) (GraphPad, Prism, v. 9.0). p < 0.05 was determined to be significant.

hGPR55 [1] = molecular target: T2, hGPR55 (Homo sapiens, UniProt Q9Y2T6); assay: [3H]CP55,940 radioligand displacement assay on hGPR55 CHO cell membranes; assay type: binding
T2 construct: host or cells: CHO-K1
Experimental: as §1, §2

hGPR55 [2] = molecular target: T2, hGPR55; assay: p-ERK1/2 activation, in-cell Western, CHO cells expressing hGPR55; assay type: cell-based; conditions: for Emax, p-ERK1/2 activation: fold over vehicle, CHO cells expressing hGPR55, 30 min, mean ± SEM
Experimental: Downstream signaling by hGPR55 was investigated by quantifying p-ERK activation in the in-cell Western assay.
Cells were seeded at approximately 2000 cells/well in 96-well plates and treated with 0.1–10 μM compounds for 30 min and were then fixed for 10 min at room temperature with 4% paraformaldehyde. Cells were washed 3 times with 100 μL 1X PBS for 5 min each. Cells were incubated with blocking solution (PBS, 20% Odyssey blocking buffer, and 0.1% TritonX-100) for 1 h at room temperature. Next, cells were exposed to primary antibodies for p-ERK1/2(T202/Y204) (mouse monoclonal IgG, Cat# sc-136521) or ERK1/2 (rabbit polyclonal IgG, Cat# sc-292838) (Santa Cruz Biotechnology, Santa Cruz, CA) diluted (1:200) in blocking solution overnight at 4 °C. Cells were washed 3 times with 100 μL PBS for 5 min each. Cells were exposed to the secondary antibodies goat polyclonal anti-rabbit IgG IR^Dye800-conjugated antibody diluted 1:500 (Li-Cor Biosciences, IgG, Cat# P/S 926-32210, RRID AB-2687825, lot# C50113-18) and goat polyclonal anti-mouse IgG IR^Dye680-conjugated antibody diluted 1:500 (Li-Cor Biosciences, IgG, Cat# P/N 925-68070, RRID AB-2651128, lot# C50113-17) for 1 h at room temperature. Cells were washed 3 times with 100 μL PBS for 5 min each. Analyses were conducted using the Odyssey Imaging system and software (version 3.0; Li-Cor).
as §2

human CB2R = molecular target: T3, human CB2R (Homo sapiens, UniProt P34972); assay: [3H]CP55,940 radioligand displacement assay on hCB2R CHO cell membranes; assay type: binding
T3 construct: host or cells: CHO-K1
Experimental: as §1, §2

[3] = CHO cells expressing hGPR55, 30 min treatment, mean (95% CI), n = 6, read-out: EC50 95% CI, p-ERK1/2 activation

T2 sequence (Q9Y2T6 whole entry): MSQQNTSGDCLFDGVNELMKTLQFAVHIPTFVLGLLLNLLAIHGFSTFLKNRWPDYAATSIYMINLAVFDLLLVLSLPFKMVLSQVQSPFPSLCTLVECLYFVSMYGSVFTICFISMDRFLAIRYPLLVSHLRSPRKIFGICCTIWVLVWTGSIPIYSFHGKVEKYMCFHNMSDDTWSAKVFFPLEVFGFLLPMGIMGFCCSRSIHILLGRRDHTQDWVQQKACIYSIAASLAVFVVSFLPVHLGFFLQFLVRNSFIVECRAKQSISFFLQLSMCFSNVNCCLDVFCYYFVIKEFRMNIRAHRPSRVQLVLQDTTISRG
T3 sequence (P34972 whole entry): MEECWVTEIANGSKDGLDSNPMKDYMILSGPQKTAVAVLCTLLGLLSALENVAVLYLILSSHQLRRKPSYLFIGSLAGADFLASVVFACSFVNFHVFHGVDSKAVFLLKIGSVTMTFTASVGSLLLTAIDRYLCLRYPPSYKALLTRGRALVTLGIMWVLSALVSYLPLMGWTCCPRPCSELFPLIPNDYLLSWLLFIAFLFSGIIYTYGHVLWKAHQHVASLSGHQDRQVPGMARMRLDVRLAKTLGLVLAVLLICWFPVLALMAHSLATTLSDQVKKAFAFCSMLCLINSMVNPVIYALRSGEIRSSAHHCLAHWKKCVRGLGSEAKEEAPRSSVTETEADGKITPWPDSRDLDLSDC
T1 sequence (P21554 whole entry): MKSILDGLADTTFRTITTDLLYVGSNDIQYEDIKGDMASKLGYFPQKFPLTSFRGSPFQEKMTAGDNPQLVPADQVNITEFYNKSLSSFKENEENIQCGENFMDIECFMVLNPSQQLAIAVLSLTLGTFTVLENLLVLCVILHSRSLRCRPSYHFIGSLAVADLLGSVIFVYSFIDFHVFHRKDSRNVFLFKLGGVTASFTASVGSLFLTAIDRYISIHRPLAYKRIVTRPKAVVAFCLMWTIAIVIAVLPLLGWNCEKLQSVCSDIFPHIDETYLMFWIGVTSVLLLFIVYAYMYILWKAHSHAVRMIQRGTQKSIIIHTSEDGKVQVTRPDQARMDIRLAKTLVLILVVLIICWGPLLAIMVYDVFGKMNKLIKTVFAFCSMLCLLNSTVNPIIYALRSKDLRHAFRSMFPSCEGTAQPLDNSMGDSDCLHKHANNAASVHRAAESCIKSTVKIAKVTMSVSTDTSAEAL

Compound: CCCCc1cc(O)c2cc(Cc3ccccc3O)c(=O)n(C)c2c1 [Compound 4, 7-n-Butyl-5-hydroxy-3-(2-hydroxybenzyl)-1-methylquinolin-2(1H)-one]
- Ki (human CB1R): 29 nM
- Ki (hGPR55 [1]; read-out: Ki hGPR55): 7.1 nM
- EC50 (hGPR55 [2]; [3]): 11 nM
- Emax, p-ERK1/2 activation (hGPR55 [2]; n = 6): 1.3 ± 0.03 Fold
- melting point: 223 to 225 °C
- Ki (human CB2R): 7.9 nM

Compound: CCCCCCC(C)(C)c1ccc([C@@H]2C[C@H](O)CC[C@H]2CCCO)c(O)c1 [CP55,940, reference compound]
- Ki (hGPR55 [1]): 13 nM
- EC50 (hGPR55 [2]): 4.2 nM

Compound: CCCCc1cc(OC)c2cc(Cc3ccccc3OC)c(=O)n(C)c2c1 [Compound 2, 7-n-Butyl-5-methoxy-3-(2-methoxybenzyl)-1-methylquinolin-2(1H)-one]
- Ki (human CB1R): > 10000 nM
- Ki (hGPR55 [1]; read-out: Ki hGPR55): 1.2 nM
- EC50 (hGPR55 [2]; [3]): 1.1 nM
- Emax, p-ERK1/2 activation (hGPR55 [2]; n = 6): 1.4 ± 0.07 Fold
- melting point: 78 to 80 °C
- Ki (human CB2R): 6.9 nM

Compound: CCCCc1cc(OC)c2cc(Cc3ccccc3OC)c(=O)[nH]c2c1 [Compound 1, 7-n-Butyl-5-methoxy-3-(2-methoxybenzyl)quinolin-2(1H)-one]
- Ki (human CB1R): > 10000 nM
- Ki (hGPR55 [1]; read-out: Ki hGPR55): 14 nM
- EC50 (hGPR55 [2]; [3]): 6.4 nM
- Emax, p-ERK1/2 activation (hGPR55 [2]; n = 6): 1.5 ± 0.06 Fold
- melting point: 208 to 210 °C
- Ki (human CB2R): > 10000 nM

Compound: CCCCc1cc(O)c2cc(Cc3ccccc3O)c(=O)[nH]c2c1 [Compound 3, 7-n-Butyl-5-hydroxy-3-(2-hydroxybenzyl)quinolin-2(1H)-one]
- Ki (human CB1R): 5.1 nM
- Ki (hGPR55 [1]; read-out: Ki hGPR55): 6.2 nM
- EC50 (hGPR55 [2]; [3]): 1.4 nM
- Emax, p-ERK1/2 activation (hGPR55 [2]; n = 6): 1.2 ± 0.04 Fold
- melting point: 252 to 254 °C
- Ki (human CB2R): > 10000 nM

Compound: C=C(C)[C@@H]1CCC(C)=C[C@H]1c1c(C)cc(O)cc1O [Compound O-1602, O-1602, reference compound]
- Ki (hGPR55 [1]; read-out: Ki hGPR55): 10 nM
- EC50 (hGPR55 [2]; [3]): 61 nM
- Emax, p-ERK1/2 activation (hGPR55 [2]; n = 6): 1.3 ± 0.03 Fold
